Measured values published in the supplement of paper PMC10307832.

Legend:
Experiment in all cases: relative viability (nuclei count vs DMSO), 5 days (fraction); higher = more cells survive
A-427 = system: A-427
Outline: (§1)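 After 5 days of treatment, lung cancer cells in 1536-well plates were fixed and stained in a single step (final 0.05% Triton X-100, 1% formaldehyde, 1 ug/ml Hoechst) and their nuclei counted on 4× images. Treatment had been applied by pin tool the day after seeding as one drug alone or as a fixed anchor-drug dose with five library-drug doses (not always all listed) in √10 steps. Relative viability is the nuclei count of treated wells divided by that of vehicle wells, and values are medians of duplicate plates.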

BEN = system: BEN
Outline: as §1

HARA = system: HARA
Outline: as §1

LCLC-97TM1 = system: LCLC-97TM1
Outline: as §1

LOU-NH91 = system: LOU-NH91
Outline: as §1

LU99A = system: LU99A
Outline: as §1

LXF-289 = system: LXF-289
Outline: as §1

NCI-H1395 = system: NCI-H1395
Outline: as §1

NCI-H1666 = system: NCI-H1666
Outline: as §1

NCI-H1755 = system: NCI-H1755
Outline: as §1

NCI-H1793 = system: NCI-H1793
Outline: as §1

NCI-H1915 = system: NCI-H1915
Outline: as §1

NCI-H1944 = system: NCI-H1944
Outline: as §1

NCI-H2023 = system: NCI-H2023
Outline: as §1

NCI-H2126 = system: NCI-H2126
Outline: as §1

NCI-H2170 = system: NCI-H2170
Outline: as §1

NCI-H23 = system: NCI-H23
Outline: as §1

NCI-H322M = system: NCI-H322M
Outline: as §1

NCI-H441 = system: NCI-H441
Outline: as §1

NCI-H460 = system: NCI-H460
Outline: as §1

NCI-H650 = system: NCI-H650
Outline: as §1

PC-3 [JPC-3] = system: PC-3 [JPC-3]
Outline: as §1

SK-LU-1 = system: SK-LU-1
Outline: as §1

O=C(O)CCCCC(CCSCc1ccccc1)SCc1ccccc1 (centres undefined) [CPI-613] + Cc1cc(Nc2cc(N3CCN(C)CC3)nc(Sc3ccc(NC(=O)C4CC4)cc3)n2)n[nH]1 [Tozasertib] (partner 0.1 µM)
relative viability (A-427; first compound 5 µM): 0.204
relative viability (A-427; first compound 15.81 µM): 0.193
relative viability (A-427; first compound 50 µM): 0.203
relative viability (A-427; first compound 158.11 µM): 0.124
relative viability (A-427; first compound 500 µM): 0.0991
relative viability (BEN; first compound 5 µM): 0.532
relative viability (BEN; first compound 15.81 µM): 0.47
relative viability (BEN; first compound 50 µM): 0.495
relative viability (BEN; first compound 158.11 µM): 0.535
relative viability (BEN; first compound 500 µM): 0.408
relative viability (HARA; first compound 15.81 µM): 0.117
relative viability (HARA; first compound 50 µM): 0.0973
relative viability (HARA; first compound 158.11 µM): 0.0946
relative viability (HARA; first compound 500 µM): 0.0096
relative viability (LCLC-97TM1; first compound 5 µM): 0.209
relative viability (LCLC-97TM1; first compound 15.81 µM): 0.204
relative viability (LCLC-97TM1; first compound 50 µM): 0.247
relative viability (LCLC-97TM1; first compound 158.11 µM): 0.138
relative viability (LCLC-97TM1; first compound 500 µM): 0.0361
relative viability (LOU-NH91; first compound 5 µM): 0.651
relative viability (LOU-NH91; first compound 15.81 µM): 0.611
relative viability (LOU-NH91; first compound 50 µM): 0.62
relative viability (LOU-NH91; first compound 158.11 µM): 0.684
relative viability (LOU-NH91; first compound 500 µM): 0.643
relative viability (LU99A; first compound 5 µM): 0.299
relative viability (LU99A; first compound 15.81 µM): 0.298
relative viability (LU99A; first compound 50 µM): 0.293
relative viability (LU99A; first compound 158.11 µM): 0.343
relative viability (LU99A; first compound 500 µM): 0.34
relative viability (LXF-289; first compound 5 µM): 0.178
relative viability (LXF-289; first compound 15.81 µM): 0.142
relative viability (LXF-289; first compound 50 µM): 0.176
relative viability (LXF-289; first compound 158.11 µM): 0.0521
relative viability (LXF-289; first compound 500 µM): 0.0406
relative viability (NCI-H1395; first compound 5 µM): 0.691
relative viability (NCI-H1395; first compound 15.81 µM): 0.632
relative viability (NCI-H1395; first compound 50 µM): 0.653
relative viability (NCI-H1395; first compound 158.11 µM): 0.752
relative viability (NCI-H1395; first compound 500 µM): 0.612
relative viability (NCI-H1666; first compound 5 µM): 0.558
relative viability (NCI-H1666; first compound 15.81 µM): 0.634
relative viability (NCI-H1666; first compound 50 µM): 0.614
relative viability (NCI-H1666; first compound 158.11 µM): 0.233
relative viability (NCI-H1666; first compound 500 µM): 0.155
relative viability (NCI-H1755; first compound 5 µM): 0.558
relative viability (NCI-H1755; first compound 15.81 µM): 0.52
relative viability (NCI-H1755; first compound 50 µM): 0.581
relative viability (NCI-H1755; first compound 158.11 µM): 0.402
relative viability (NCI-H1755; first compound 500 µM): 0.356
relative viability (NCI-H1793; first compound 5 µM): 0.297
relative viability (NCI-H1793; first compound 15.81 µM): 0.281
relative viability (NCI-H1793; first compound 50 µM): 0.308
relative viability (NCI-H1793; first compound 158.11 µM): 0.149
relative viability (NCI-H1793; first compound 500 µM): 0.0274
relative viability (NCI-H1915; first compound 5 µM): 0.44
relative viability (NCI-H1915; first compound 15.81 µM): 0.4
relative viability (NCI-H1915; first compound 50 µM): 0.322
relative viability (NCI-H1915; first compound 158.11 µM): 0.241
relative viability (NCI-H1915; first compound 500 µM): 0.111
relative viability (NCI-H1944; first compound 5 µM): 0.264
relative viability (NCI-H1944; first compound 15.81 µM): 0.233
relative viability (NCI-H1944; first compound 50 µM): 0.268
relative viability (NCI-H1944; first compound 158.11 µM): 0.195
relative viability (NCI-H1944; first compound 500 µM): 0.127
relative viability (NCI-H2023; first compound 5 µM): 0.359
relative viability (NCI-H2023; first compound 15.81 µM): 0.234
relative viability (NCI-H2023; first compound 50 µM): 0.312
relative viability (NCI-H2023; first compound 158.11 µM): 0.0417
relative viability (NCI-H2023; first compound 500 µM): 0.0077
relative viability (NCI-H2126; first compound 5 µM): 0.775
relative viability (NCI-H2126; first compound 15.81 µM): 0.778
relative viability (NCI-H2126; first compound 50 µM): 0.817
relative viability (NCI-H2126; first compound 158.11 µM): 0.281
relative viability (NCI-H2126; first compound 500 µM): 0.0758
relative viability (NCI-H2170; first compound 5 µM): 0.732
relative viability (NCI-H2170; first compound 15.81 µM): 0.55
relative viability (NCI-H2170; first compound 50 µM): 0.694
relative viability (NCI-H2170; first compound 158.11 µM): 0.347
relative viability (NCI-H2170; first compound 500 µM): 0.183
relative viability (NCI-H23; first compound 5 µM): 0.348
relative viability (NCI-H23; first compound 15.81 µM): 0.284
relative viability (NCI-H23; first compound 50 µM): 0.337
relative viability (NCI-H23; first compound 158.11 µM): 0.223
relative viability (NCI-H23; first compound 500 µM): 0.0061
relative viability (NCI-H322M; first compound 5 µM): 0.499
relative viability (NCI-H322M; first compound 15.81 µM): 0.452
relative viability (NCI-H322M; first compound 50 µM): 0.499
relative viability (NCI-H322M; first compound 158.11 µM): 0.25
relative viability (NCI-H322M; first compound 500 µM): 0.0634
relative viability (NCI-H441; first compound 5 µM): 0.704
relative viability (NCI-H441; first compound 15.81 µM): 0.633
relative viability (NCI-H441; first compound 50 µM): 0.649
relative viability (NCI-H441; first compound 158.11 µM): 0.247
relative viability (NCI-H441; first compound 500 µM): 0.0826
relative viability (NCI-H460; first compound 5 µM): 0.497
relative viability (NCI-H460; first compound 15.81 µM): 0.28
relative viability (NCI-H460; first compound 50 µM): 0.457
relative viability (NCI-H460; first compound 158.11 µM): 0.371
relative viability (NCI-H460; first compound 500 µM): 0.418
relative viability (NCI-H650; first compound 5 µM): 0.702
relative viability (NCI-H650; first compound 15.81 µM): 0.623
relative viability (NCI-H650; first compound 50 µM): 0.699
relative viability (NCI-H650; first compound 158.11 µM): 0.546
relative viability (NCI-H650; first compound 500 µM): 0.586
relative viability (PC-3 [JPC-3]; first compound 5 µM): 0.81
relative viability (PC-3 [JPC-3]; first compound 15.81 µM): 0.808
relative viability (PC-3 [JPC-3]; first compound 50 µM): 0.762
relative viability (PC-3 [JPC-3]; first compound 158.11 µM): 0.499
relative viability (PC-3 [JPC-3]; first compound 500 µM): 0.498
relative viability (SK-LU-1; first compound 5 µM): 0.321
relative viability (SK-LU-1; first compound 15.81 µM): 0.244
relative viability (SK-LU-1; first compound 50 µM): 0.299
relative viability (SK-LU-1; first compound 158.11 µM): 0.25
relative viability (SK-LU-1; first compound 500 µM): 0.195
